Source: patent US11332467B2, “Solid state forms of palbociclib dimesylate” (PLANTEX LTD., priority 2016, dated 2022)

Test: Specific surface area (SSA), BET nitrogen adsorption
Assay type: physicochemical
Conditions: 7 point BET in the range 0.05-0.20 P/Po, triplicate determination, Palbociclib Form A obtained by Example 6
Description: Specific Surface Area (SSA) Method
SSA measurement based on BET-nitrogen adsorption were carried out using a Micromeritics TriStar II Plus 3030 specific surface area analyzer together with Micromeritics VacPrep 061 degassing station.
Software version: Microactive for TriStar II Plus v 2.03
Sample tube: ½″ round bottom cell with glass filler rods
Sample masses*: Approximately % full cell
Sample preparation: VacPrep 061, nitrogen stream
Out gassing conditions: 16 hrs at 25° C. under vacuum
Isothermal collection points: 11 point BET in the range 0.05-0.30 P/Po
Isothermal data analysis range: 7 point BET in the range 0.05-0.20 P/Po
Outgas test duration: 180 s
Equilibration interval: 10 s
Equilibration timeout: 600 s
Calculations and Reporting: The specific surface area was reported in the range 0.05-0.20 P/Po using 7 point BET from a triplicate determination.

## CC(=O)c1c(C)c2cnc(Nc3ccc(N4CCNCC4)cn3)nc2n(C2CCCC2)c1=O [Palbociclib, 6-Acetyl-8-cyclopentyl-5-methyl-2-[[5-(1-piperazinyl)-2-pyridinyl]amino]pyrido[2,3-d]pyrimidin-7(8H)-one]
  SSA (specific surface area): 4.9 m^2/g
